# Test results: PMC6540285, “Evaluation of Protein Kinase Inhibitors with PLK4 Cross-Over Potential in a Pre-Clinical Model of Cancer” (International Journal of Molecular Sciences, 2019)
# What was measured:
# FYN = FYN (Homo sapiens, UniProt P06241); assay: SelectScreen kinase profiling, ZLYTE; assay type: biochemical
# AMPK (A1/B1/G2) = AMPK (A1/B1/G2) (Homo sapiens, UniProt Q13131); assay: SelectScreen kinase profiling, LanthaScreen binding
# LYN B = LYN B (Homo sapiens, UniProt P07948); assay: SelectScreen kinase profiling, ZLYTE; assay type: biochemical
# Chain of LYN B (P07948 1-491 isoform P07948-2): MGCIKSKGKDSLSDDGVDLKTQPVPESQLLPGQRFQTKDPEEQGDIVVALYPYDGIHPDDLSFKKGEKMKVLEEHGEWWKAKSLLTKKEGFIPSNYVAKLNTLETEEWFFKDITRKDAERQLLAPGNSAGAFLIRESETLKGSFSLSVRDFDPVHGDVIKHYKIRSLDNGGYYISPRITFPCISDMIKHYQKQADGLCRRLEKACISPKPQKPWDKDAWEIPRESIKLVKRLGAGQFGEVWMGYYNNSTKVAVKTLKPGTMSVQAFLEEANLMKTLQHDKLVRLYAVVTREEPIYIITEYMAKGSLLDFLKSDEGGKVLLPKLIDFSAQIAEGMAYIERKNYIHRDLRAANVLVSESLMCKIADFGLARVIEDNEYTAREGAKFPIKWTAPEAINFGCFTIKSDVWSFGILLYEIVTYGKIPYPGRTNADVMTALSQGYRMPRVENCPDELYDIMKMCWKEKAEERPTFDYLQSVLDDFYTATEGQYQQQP
# ACVRL1 (ALK1) = ACVRL1 (ALK1) (Homo sapiens, UniProt P37023); assay: SelectScreen kinase profiling, LanthaScreen binding
# Chain of ACVRL1 (ALK1) (P37023 22-503): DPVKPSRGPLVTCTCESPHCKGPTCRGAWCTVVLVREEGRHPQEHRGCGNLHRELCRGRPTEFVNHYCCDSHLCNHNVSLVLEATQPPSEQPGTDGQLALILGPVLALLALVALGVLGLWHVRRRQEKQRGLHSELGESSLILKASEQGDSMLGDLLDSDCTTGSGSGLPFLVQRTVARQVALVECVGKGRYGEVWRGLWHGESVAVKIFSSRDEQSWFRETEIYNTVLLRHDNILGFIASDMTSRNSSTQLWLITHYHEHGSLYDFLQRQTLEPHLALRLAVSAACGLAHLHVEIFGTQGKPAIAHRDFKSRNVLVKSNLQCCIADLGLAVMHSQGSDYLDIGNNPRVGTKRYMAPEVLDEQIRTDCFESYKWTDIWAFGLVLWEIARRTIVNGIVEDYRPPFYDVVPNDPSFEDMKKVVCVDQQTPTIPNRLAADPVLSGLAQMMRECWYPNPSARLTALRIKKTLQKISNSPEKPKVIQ
# BMPR2 = BMPR2 (Homo sapiens, UniProt Q13873); assay: as above; conditions: BMPR2, 10 µM
# Chain of BMPR2 (Q13873 27-1038): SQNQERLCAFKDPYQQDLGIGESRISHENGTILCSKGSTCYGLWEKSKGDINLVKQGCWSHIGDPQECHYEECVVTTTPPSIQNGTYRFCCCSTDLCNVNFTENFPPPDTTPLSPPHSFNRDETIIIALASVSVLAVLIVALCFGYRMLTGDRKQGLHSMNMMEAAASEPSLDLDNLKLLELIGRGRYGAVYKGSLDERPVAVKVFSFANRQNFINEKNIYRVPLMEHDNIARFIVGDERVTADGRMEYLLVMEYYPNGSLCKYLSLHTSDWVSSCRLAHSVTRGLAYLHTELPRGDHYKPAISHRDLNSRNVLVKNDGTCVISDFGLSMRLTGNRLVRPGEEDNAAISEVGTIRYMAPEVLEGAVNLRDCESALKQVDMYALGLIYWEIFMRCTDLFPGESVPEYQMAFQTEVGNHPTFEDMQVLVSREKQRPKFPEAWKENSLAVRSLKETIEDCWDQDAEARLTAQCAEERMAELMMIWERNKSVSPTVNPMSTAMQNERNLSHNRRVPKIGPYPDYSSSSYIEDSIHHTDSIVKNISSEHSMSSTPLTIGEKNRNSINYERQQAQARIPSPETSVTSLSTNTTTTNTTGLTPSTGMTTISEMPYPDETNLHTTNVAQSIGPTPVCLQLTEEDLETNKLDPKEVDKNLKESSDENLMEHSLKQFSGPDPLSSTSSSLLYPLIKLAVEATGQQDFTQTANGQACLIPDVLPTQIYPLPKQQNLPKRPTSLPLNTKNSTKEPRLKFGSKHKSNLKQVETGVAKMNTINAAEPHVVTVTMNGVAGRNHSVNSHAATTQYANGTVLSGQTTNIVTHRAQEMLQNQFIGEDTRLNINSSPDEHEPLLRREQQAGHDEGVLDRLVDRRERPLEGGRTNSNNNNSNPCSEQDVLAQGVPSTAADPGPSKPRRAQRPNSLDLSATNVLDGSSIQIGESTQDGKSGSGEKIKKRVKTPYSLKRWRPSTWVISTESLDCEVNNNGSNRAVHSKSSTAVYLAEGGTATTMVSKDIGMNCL
# DCAMKL1 (DCLK1) = DCAMKL1 (DCLK1) (Homo sapiens, UniProt O15075); assay: SelectScreen kinase profiling, ZLYTE; assay type: biochemical
# Chain of DCAMKL1 (DCLK1) (O15075 whole entry): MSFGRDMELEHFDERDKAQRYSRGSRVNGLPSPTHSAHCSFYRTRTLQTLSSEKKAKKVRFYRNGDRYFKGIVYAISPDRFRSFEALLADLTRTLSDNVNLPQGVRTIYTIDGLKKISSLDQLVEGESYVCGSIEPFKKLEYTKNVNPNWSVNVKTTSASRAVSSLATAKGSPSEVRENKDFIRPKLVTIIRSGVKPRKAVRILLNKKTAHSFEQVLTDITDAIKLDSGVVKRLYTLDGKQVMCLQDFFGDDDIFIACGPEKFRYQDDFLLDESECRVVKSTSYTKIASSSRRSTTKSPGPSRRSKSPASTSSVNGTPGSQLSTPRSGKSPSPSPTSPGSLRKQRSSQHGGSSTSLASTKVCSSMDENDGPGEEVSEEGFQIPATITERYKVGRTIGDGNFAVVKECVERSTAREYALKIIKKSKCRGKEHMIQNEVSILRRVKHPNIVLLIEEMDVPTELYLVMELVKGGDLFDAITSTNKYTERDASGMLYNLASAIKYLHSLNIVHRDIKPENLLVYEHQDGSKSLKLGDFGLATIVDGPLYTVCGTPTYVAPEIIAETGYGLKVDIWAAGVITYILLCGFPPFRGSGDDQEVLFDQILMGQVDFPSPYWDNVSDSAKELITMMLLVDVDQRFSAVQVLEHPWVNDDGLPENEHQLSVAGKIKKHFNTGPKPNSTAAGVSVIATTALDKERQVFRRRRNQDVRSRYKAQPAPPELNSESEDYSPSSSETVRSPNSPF
# CSNK1A1L = CSNK1A1L (Homo sapiens, UniProt Q8N752); assay: SelectScreen kinase profiling, ZLYTE; assay type: biochemical
# Chain of CSNK1A1L (Q8N752 whole entry): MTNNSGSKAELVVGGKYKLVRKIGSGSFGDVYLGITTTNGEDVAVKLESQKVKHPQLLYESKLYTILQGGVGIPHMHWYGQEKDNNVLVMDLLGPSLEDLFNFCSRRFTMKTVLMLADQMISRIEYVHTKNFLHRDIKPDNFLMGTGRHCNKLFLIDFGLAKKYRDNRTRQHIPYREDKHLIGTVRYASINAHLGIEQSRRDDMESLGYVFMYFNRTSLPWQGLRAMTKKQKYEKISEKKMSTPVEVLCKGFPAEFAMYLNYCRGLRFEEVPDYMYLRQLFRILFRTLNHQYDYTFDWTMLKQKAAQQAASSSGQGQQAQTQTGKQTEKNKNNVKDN
# MYLK4 = MYLK4 (Homo sapiens, UniProt Q86YV6); assay: SelectScreen kinase profiling, LanthaScreen binding; conditions: MYLK4, 10 µM
# Chain of FYN (P06241 whole entry): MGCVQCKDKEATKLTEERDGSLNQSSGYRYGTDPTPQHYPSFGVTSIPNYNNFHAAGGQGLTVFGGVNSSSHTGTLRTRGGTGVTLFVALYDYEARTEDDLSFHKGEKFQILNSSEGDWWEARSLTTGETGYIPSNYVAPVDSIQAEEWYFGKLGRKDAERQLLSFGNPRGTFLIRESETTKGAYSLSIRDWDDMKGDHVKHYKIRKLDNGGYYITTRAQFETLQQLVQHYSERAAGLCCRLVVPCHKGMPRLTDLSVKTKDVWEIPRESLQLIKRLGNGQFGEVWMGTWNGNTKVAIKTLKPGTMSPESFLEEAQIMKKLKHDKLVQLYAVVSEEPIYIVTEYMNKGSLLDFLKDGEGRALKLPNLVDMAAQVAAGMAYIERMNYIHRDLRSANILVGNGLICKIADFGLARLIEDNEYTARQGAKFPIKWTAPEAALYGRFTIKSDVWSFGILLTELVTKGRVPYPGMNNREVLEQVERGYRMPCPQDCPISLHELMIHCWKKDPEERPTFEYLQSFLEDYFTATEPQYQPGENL
# Chain of AMPK (A1/B1/G2) (Q13131 whole entry): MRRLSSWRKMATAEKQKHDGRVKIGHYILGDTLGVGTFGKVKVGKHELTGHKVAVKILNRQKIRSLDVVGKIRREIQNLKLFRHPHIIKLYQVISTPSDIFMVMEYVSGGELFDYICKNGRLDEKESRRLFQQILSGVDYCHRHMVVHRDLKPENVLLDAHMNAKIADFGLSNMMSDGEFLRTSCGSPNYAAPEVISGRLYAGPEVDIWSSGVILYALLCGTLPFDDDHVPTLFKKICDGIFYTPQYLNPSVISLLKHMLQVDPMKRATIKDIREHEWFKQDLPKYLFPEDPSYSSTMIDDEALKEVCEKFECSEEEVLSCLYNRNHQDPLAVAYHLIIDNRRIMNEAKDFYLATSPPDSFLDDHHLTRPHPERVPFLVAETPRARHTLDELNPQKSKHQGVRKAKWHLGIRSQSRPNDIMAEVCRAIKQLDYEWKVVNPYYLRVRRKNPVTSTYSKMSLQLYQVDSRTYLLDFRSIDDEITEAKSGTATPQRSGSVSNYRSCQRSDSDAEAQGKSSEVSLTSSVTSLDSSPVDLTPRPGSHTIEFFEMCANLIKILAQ
# Chain of AMPK (A1/B1/G2) (Q9Y478 whole entry partner): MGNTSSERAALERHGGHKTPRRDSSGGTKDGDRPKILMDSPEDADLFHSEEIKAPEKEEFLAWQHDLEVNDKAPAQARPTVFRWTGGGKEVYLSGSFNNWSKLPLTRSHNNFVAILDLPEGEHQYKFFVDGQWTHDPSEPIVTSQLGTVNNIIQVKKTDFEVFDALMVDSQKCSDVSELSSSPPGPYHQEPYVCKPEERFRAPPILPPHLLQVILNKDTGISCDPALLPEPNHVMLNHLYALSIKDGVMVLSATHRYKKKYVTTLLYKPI
# Chain of AMPK (A1/B1/G2) (Q9UGJ0 whole entry partner): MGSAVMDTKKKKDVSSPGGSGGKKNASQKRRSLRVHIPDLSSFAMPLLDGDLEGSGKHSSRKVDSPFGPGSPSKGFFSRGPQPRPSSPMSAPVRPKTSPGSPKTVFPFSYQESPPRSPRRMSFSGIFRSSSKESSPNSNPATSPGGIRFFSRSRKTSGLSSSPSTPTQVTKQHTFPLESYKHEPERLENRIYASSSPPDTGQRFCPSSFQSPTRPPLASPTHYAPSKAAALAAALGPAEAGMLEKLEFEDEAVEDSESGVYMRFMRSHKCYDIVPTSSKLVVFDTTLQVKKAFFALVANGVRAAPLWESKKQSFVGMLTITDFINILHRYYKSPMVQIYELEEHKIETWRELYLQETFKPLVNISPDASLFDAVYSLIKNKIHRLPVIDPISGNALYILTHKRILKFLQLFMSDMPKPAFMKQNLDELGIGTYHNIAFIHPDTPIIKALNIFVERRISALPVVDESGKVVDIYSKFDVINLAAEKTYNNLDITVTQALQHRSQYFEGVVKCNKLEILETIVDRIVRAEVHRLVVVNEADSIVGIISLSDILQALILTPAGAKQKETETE
compound,measurement,setting,value
O=C(c1ccc(/C=C/c2n[nH]c3ccccc23)cc1)N1CCNCC1 [KW-2449],inhibition at 10 µM,FYN,94%
same,inhibition at 10 µM,AMPK (A1/B1/G2),85%
same,inhibition at 10 µM,LYN B,94%
same,inhibition at 10 µM,ACVRL1 (ALK1),86%
same,inhibition at 10 µM,BMPR2,113%
same,inhibition at 10 µM,DCAMKL1 (DCLK1),57%
same,inhibition at 10 µM,CSNK1A1L,20%
same,inhibition at 10 µM,MYLK4,71%
